In patent publication US12642791B2, “Inhibitors of lysyl oxidases” (UNIVERSITY OF SOUTH CAROLINA, priority 2021, dated 2026):

Tests used:
MDA-MB-231 xenografts = assay: Acquired doxorubicin resistant xenografts; assay type: in vivo; conditions: BAPN 100 mg/kg added to doxorubicin 2.5 mg/kg
Protocol: To test the ability of LOX inhibition to overcome doxorubicin resistance in chemotherapy-refractory TNBC in vivo, the inventors first treated MDA-MB-231 xenografts with doxorubicin until an accelerated tumor growth was achieved.
At this point, BAPN (100 mg/kg) was added to half of the doxorubicin-resistant tumors while the rest continued to receive doxorubicin alone (2.5 mg/kg).
FIG. 26. Inhibiting LOX overcomes resistance in acquired doxorubicin resistant MDA-MB-231 xenografts. A. Tumor growth in xenografts treated with low dose doxorubicin until resistance develops followed by treatment with the combination of doxorubicin (2.5 mg/kg) and the LOX inhibitor, BAPN (100 mg/kg). B. Relative LOX activity in tumors from A. C. Representative images of Picrosirius red in tumors from A.

MDA-MB-15714 = assay: Doxorubicin re-sensitization of collagen I-embedded TNBC cells; assay type: cell-based, human
MDA-MB-231 cells = assay: Doxorubicin chemosensitization in 3D collagen I culture; assay type: cell-based, human; conditions: collagen I-embedded cells, combination with doxorubicin
Protocol: Collagen solution was prepared at a concentration of 0.5-1 mg/ml from the rat tail collagen I (Corning, USA) with a neutralization step including the addition of 1N NaOH solution. Cells were trypsinazed and resuspended in collagen:matrigel mix (1:1). 8×10^3 cells were seeded into 96-well or μ-Slide 8-well glass bottom chambers. After 1 hour of incubation at room temperature, media was added on top of the solidified collagen:matrigel mix. Drug treatments were done 12 hours after cell seeding.
Cells were embedded in type I collagen:matrigel mix as described above. Cells were grown in the presence of doxorubicin or LOX inhibitors alone or combination of LOX inhibitors with doxorubicin for 48 hours. After the treatment, cell viability was measured by using 3D Cell Titer Glo (Promega, USA) kit.

TM01278 PDX = assay: Doxorubicin-resistant TNBC PDX tumors; assay type: in vivo
Protocol: FIG. 27. Targeting LOX in TNBC PDX organoids or tumors overcomes resistance. A. Scheme showing the selection pipeline of PDXs for in vivo testing. B. Correlation analysis of LOX mRNA expression with hypoxia and focal adhesion scores in 15 different TNBC PDX models. Red dots show the positions of the selected TM01278. C. Representative images of TM01278 PDX organoids at day 0 and day 9 after treatment with doxorubicin (40 nM) and BAPN (25 mM) treatment, alone or in combination (left) and quantification of organoid diameter upon combination therapy for 9 days (right) (n=12 (vehicle, Doxo, BAPN), n=11 (Doxo+BAPN)). D. Tumor growth of TM01278 PDX upon treatment with doxorubicin (2 mg/kg) and BAPN (100 mg/kg), alone or in combination (n=5). […] E. Quantification of Picrosirius red staining in PDX tumors from D (n=4). F. Doxorubicin fluorescence quantification in tumors from D (n=6). G. Western Blots of FAK/Src signaling in PDXs treated with doxorubicin and BAPN alone or in combination.

[1] = in vivo; cited from earlier work
[2] = test system: MDA-MB-231 cells embedded in collagen I; assay: ECM crosslinking by collagen and fibronectin immunofluorescence staining; assay type: cell-based, human
Protocol: FIG. 31. […] A. Inhibition of LOX activity in MDA-MB-231 cells treated with 5 μM of the LOX inhibitors. B. Doxorubicin sensitization with 6232 and its analogs, 6403 and 6415, in 3D collagen-I culture. C. Collagen and fibronectin staining of vehicle or 6232 or 6403 or 6415-treated MDA-MB-231 cells embedded in collagen I. BAPN is used as a positive control.
(§1) Immunofluorescence staining of cells was done in μ-Slide 8-well glass bottom chambers (Ibidi, Germany). Cells were fixed with 4% paraformaldehyde for 20 min, permeabilized with 0.5% Triton X-100 for 10 min and blocked in 5% BSA-PBS. Samples were incubated with primary (Collagen I, Fibronectin, F-actin, a-SMA) and secondary Alexa Fluor 647 or 488-labeled antibodies for 1.5 hours at room temperature. Cells were also counterstained with DAPI for 5 min. Images were acquired using ZEN 2012 SP5 (Black) LSM 700 (Carl Zeiss, DE).

MDA-MB-43614 = assay: Doxorubicin re-sensitization of collagen I-embedded TNBC cells; assay type: cell-based, human
[3] = test system: cellular lysyl oxidase (LOX) activity, MDA-MB-231 cells; assay: Cell-based lysyl oxidase activity assay (Abcam kit); design: species or system human; conditions: read-out: IC50 for cellular lysyl oxidase inhibition
Description: As the available LOX inhibitors are either not very potent or have toxicity, the inventors developed a robust screening pipeline shown in FIG. 28 to identify potent and safe LOX-specific and pan-LOX inhibitors. Briefly, a high-throughput cell-based LOX activity (Abcam) screen (HTS) was done for more than 5,000 drug-like compounds from the EXPRESS-Pick diversified library (4,480 molecules, ChemBridge) and Tocriscreen library of bioactive compounds (1,280 compounds, Tocris), each at a single concentration of 10 μM. […] The toxic molecules were counter screened with cell cytotoxicity assay and filtered out.
FIGS. 34. […] IC50 for cellular lysyl oxidase activity upon treatment of MDA-MB-231 cells with different LOX inhibitors. uM=microM.
For cell-based lysyl oxidase activity, fluorometric Lysly Oxidase Activity Assay Kit (Abcam, USA) was used according to manufacturer's instructions. Briefly, after the treatment, 50 μl of supernatant from each well was incubated with reagent mix and fluorescence measured in multimode-reader at Ex/Em=540/590 nm wavelength.

Caki-1 cells = assay: ECM crosslinking in kidney cancer cells; assay type: cell-based, human; conditions: 6232 at 10 uM, BAPN at 10 mM
Protocol: as §1

TM01278 PDX organoids = assay: PDX-derived TNBC organoids, combination with doxorubicin; assay type: cell-based, human; conditions: BAPN (25 mM) with doxorubicin (40 nM), 3D culture with collagen I, 9 days
Protocol: FIG. 36. Combination of 6403 and 6415 with doxorubicin reduced the growth of the TNBC organoids. A. Representative images of TM01278 PDX organoids at day 0 and day 9 after treatment with doxorubicin (50 nM) and 6403 and 6415 treatments, alone or in combination. B. Quantification of organoid diameter and viability upon combination therapy for 9 days.
TNBC organoids were established from a fresh surgical tissue by cutting the tumor into small pieces and incubating in collagenase A solution with ROCK inhibitor on a shaker at 37° C. for 30 minutes. The collagenase activity was inhibited by adding FBS, and pipetting was done to ensure the formation of almost a single cell solution. After several washes with PBS, the cell pellet was dissolved in matrigel. Breast organoid media containing ROCK and GSK inhibitors was added after the Matrigel solidified. See, Sachs, N. et al. A Living Biobank of Breast Cancer Organoids Captures Disease Heterogeneity. Cell 172, 373-386 e310, doi:10.1016/j.cell.2017.11.010 (2018). For drug testing studies, organoids were disrupted to single cells by digesting at 37° C. for 30 mins with TrypLE (A1217701, Gibco, NY, USA) in the presence of 10 μM Rock inhibitor (s1049, Selleckchem, TX, USA). Organoids were plated into wells of 96 well plate (20.000 cells/well) on a collagen-coated surface with media containing 2% Matrigel (356252, Corning, NY, USA). Drugs were added 72 hours after plating. Cells were grown in the presence of drug or vehicle for 9 days, and photos were taken from each well to show the organoid size. Organoid viability was measured by using 3D Cell Titer Glo (Promega, USA) kit.

SMILES: N#CCCN [BAPN, 6-aminopropionitrile]
- LOX activity in tumors (MDA-MB-231 xenografts): reduction in LOX activity
- fibrillar collagen in tumors (MDA-MB-231 xenografts): reduction
- survival (MDA-MB-231 xenografts): improved survival
- tumor growth (MDA-MB-231 xenografts): significant decrease in tumor growth
- doxorubicin re-sensitization (MDA-MB-15714): re-sensitized
- doxorubicin sensitization (MDA-MB-231 cells): re-sensitized
- LOX activity (TM01278 PDX; BAPN 100 mg/kg): reduced
- doxorubicin penetration (TM01278 PDX; BAPN 100 mg/kg): enhanced doxorubicin penetration
- fibrillar collagen content (TM01278 PDX; BAPN 100 mg/kg): reduced
- tumor growth (TM01278 PDX; BAPN 100 mg/kg with doxorubicin 2 mg/kg): reduced tumor growth
- toxicity in the clinic [1]: showed toxicity in the clinic
- ECM crosslinking (collagen and fibronectin staining) [2]: decrease in ECM crosslinking
- doxorubicin re-sensitization (MDA-MB-43614): re-sensitized
- IC50 [3]: > 100 µM
- ECM crosslinking (Caki-1 cells): decrease in ECM crosslinking
- tumor organoid size (TM01278 PDX organoids): significantly decreased tumor organoid size
